Results on 15 compounds are retold here after patent EP4813463A2, “TYK2 INHIBITORS AND COMPOSITIONS AND METHODS THEREOF” (Lynk Pharmaceuticals Co. Ltd., priority 2023, dated 2024).

The structures appear in SMILES notation.

The subject of test [1] is Ba/F3-FL-TYK2-P760L cells. As to the kind of experiment: Anti-proliferative assay in engineered Ba/F3 cells (Cell-Titer Glo, 72 h). The class given is cell-based. Conditions: Mus musculus, BaF3, 72 h, 72 h compound treatment, concentration that causes 50% growth inhibition, read-out: Baf3-FL-T2P760L. The gist of the method:
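Ba/F3 cells carrying Tel-dimerization/JAK kinase fusion, IL-3-independent, in RPMI-1640 + 10% FBS; 9-point 3-fold dilutions from 20 µM (0.1% DMSO) added after 24 h, 72 h at 37 °C. Viability by Cell-Titer Glo ATP luminescence; % inhibition versus DMSO cells, blank-corrected, giving IC50.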

The target in the next test is T1, TYK2-JH2 domain (Homo sapiens, UniProt P29597).
T1 construct: JAK1-JH2 domain or TYK2-JH2 domain enzyme in assay buffer
As to the kind of experiment: Binding activity test for JH2 domain of TYK2 (Tb-antibody/tracer FRET). Conditions: for IC50: JH2 domain enzyme, 60 min at 25°C, then 4°C overnight, read-out: TYK2 JH2 Binding IC50; for JAK1/TYK2 selectivity: ratio of JAK1 JH2 to TYK2 JH2 binding IC50. The gist of the method: (§1)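 Competitive TR-FRET binding: compounds dispensed as an 11-point 3-fold dilution series, then Tb-labelled antibody and tracer added to the JH2 protein system. Incubated at 25°C, then overnight at 4°C; FRET signal read on Envision and IC50 (nM) derived.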

The next test concerns the target T2, JAK1-JH2 domain (Homo sapiens, UniProt P23458).
T2 construct: JAK1-JH2 domain or TYK2-JH2 domain enzyme in assay buffer
As to the kind of experiment: Binding activity test for JH2 domain of JAK1 (Tb-antibody/tracer FRET). Conditions: JH2 domain enzyme; 60 min at 25°C, then 4°C overnight; read-out: JAK1 JH2 Binding IC50. An outline of the steps: as §1

T2 sequence (P23458 583-855 limits assumed): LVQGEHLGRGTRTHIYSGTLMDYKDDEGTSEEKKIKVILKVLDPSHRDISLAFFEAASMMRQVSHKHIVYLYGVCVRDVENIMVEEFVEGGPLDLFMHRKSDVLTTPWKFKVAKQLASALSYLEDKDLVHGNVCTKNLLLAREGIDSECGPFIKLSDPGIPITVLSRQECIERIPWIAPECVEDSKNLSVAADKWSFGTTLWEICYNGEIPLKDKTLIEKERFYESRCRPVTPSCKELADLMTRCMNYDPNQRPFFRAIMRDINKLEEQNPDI
T1 sequence (P29597 589-875 limits assumed): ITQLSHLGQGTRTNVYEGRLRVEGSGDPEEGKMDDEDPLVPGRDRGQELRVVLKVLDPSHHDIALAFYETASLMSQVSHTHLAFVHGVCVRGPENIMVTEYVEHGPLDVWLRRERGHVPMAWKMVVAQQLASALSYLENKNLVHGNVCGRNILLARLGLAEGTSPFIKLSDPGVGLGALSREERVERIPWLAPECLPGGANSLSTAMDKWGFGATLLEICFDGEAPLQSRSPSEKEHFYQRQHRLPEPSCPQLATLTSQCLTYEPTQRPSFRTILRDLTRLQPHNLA

`[2H]C([2H])([2H])n1nc(Nc2cc(NC(=O)C3CC3)ncc2C(=O)OC)c2c(OC)c([C@H](OC)C(F)(F)F)ccc21` [Example 52A, Methyl (S)-6-(cyclopropanecarboxamido)-4-((4-methoxy-1-(methyl-d3)-5-(2,2,2-trifluoro-1-methoxyethyl)-1H-indazol-3-yl)amino)nicotinate]: the IC50 in test [1] is 3.56 nM; at TYK2-JH2 domain, 0.082 nM; at JAK1-JH2 domain, 41.1 nM. The JAK1/TYK2 selectivity on TYK2-JH2 domain amounted to 501.71.

With `[2H]C([2H])([2H])n1nc(Nc2cc(NC(=O)C3CC3)ncc2C(=O)OC)c2c(OC)c([C@@H](OC)C(F)(F)F)ccc21` [Example 52B, Methyl (R)-6-(cyclopropanecarboxamido)-4-((4-methoxy-1-(methyl-d3)-5-(2,2,2-trifluoro-1-methoxyethyl)-1H-indazol-3-yl)amino)nicotinate], the IC50 is 119 nM in test [1], 0.616 nM at TYK2-JH2 domain and more than 298 nM on JAK1-JH2 domain. For the same compound, on TYK2-JH2 domain, the JAK1/TYK2 selectivity was more than 484.60.

In the case of `[2H]C([2H])([2H])NC(=O)c1cnc(NC(=O)C2CC2)cc1Nc1nn(C)c2ccc([C@@H](OC([2H])([2H])[2H])C(F)(F)F)c(OC)c12` [Example 55B, (R)-6-(cyclopropanecarboxamido)-4-((4-methoxy-1-methyl-5-(2,2,2-trifluoro-1-(methoxy-d3)ethyl)-1H-indazol-3-yl)amino)-N-(methyl-d3)nicotinamide], the IC50 turned out to be 16.2 nM in test [1], 0.08 nM at TYK2-JH2 domain and 12.3 nM on JAK1-JH2 domain. Besides, the JAK1/TYK2 selectivity on TYK2-JH2 domain came out at 153.54.

On to `COC(=O)c1cnc(NC(=O)C2CC2)nc1Nc1cccc(-c2ncn(C)n2)c1OC` [Example 56, Methyl 2-(cyclopropanecarboxamido)-4-((2-methoxy-3-(1-methyl-1H-1,2,4-triazol-3-yl)phenyl)amino)pyrimidine-5-carboxylate], for which the IC50 in test [1] was 148 nM; on TYK2-JH2 domain, 0.967 nM; on JAK1-JH2 domain, 52.6 nM. The JAK1/TYK2 selectivity at TYK2-JH2 domain is 54.42.

Regarding `CCOC(=O)c1cnc(NC(=O)C2CC2)nc1Nc1cccc(-c2ncn(C)n2)c1OC` [Example 57, Ethyl 2-(cyclopropanecarboxamido)-4-((2-methoxy-3-(1-methyl-1H-1,2,4-triazol-3-yl)phenyl)amino)pyrimidine-5-carboxylate], the IC50 in test [1] was 719 nM; at TYK2-JH2 domain it was 7.33 nM; at JAK1-JH2 domain, more than 298 nM. Also, the JAK1/TYK2 selectivity on TYK2-JH2 domain was more than 40.75.

In the case of `COC(=O)c1cnc(NC(=O)C2CC2)cc1Nc1cccc(-c2ncn(C)n2)c1OC` [Example 58, Methyl 6-(cyclopropanecarboxamido)-4-((2-methoxy-3-(1-methyl-1H-1,2,4-triazol-3-yl)phenyl)amino)nicotinate], the figures for the IC50 (in test [1]; on TYK2-JH2 domain; on JAK1-JH2 domain) were 32.4 nM, 0.304 nM and 11.9 nM, respectively. Further, on TYK2-JH2 domain, the JAK1/TYK2 selectivity is listed as 39.30.

Consider `[2H]C([2H])([2H])OC(=O)c1cnc(NC(=O)C2CC2)cc1Nc1ncn2ncc(CC)c2c1OC` [Example 59, Methyl-d3 6-(cyclopropanecarboxamido)-4-((3-ethyl-4-methoxypyrazolo[1,5-c]pyrimidin-5-yl)amino)nicotinate], for which the IC50 is 208 nM in test [1], 0.834 nM on TYK2-JH2 domain and 44.1 nM at JAK1-JH2 domain. In addition, the JAK1/TYK2 selectivity at TYK2-JH2 domain stood at 52.94.

Consider `COC(=O)c1cnc(NC(=O)C2CC2)cc1Nc1cccc(-c2ccn(C)n2)c1OC` [Example 60, Methyl 6-(cyclopropanecarboxamido)-4-((2-methoxy-3-(1-methyl-1H-pyrazol-3-yl)phenyl)amino)nicotinate], for which the IC50 turned out to be 94.4 nM in test [1], 0.546 nM on TYK2-JH2 domain and 17.9 nM at JAK1-JH2 domain. Besides, on TYK2-JH2 domain, the JAK1/TYK2 selectivity is 32.87.

Turning to `COC(=O)c1cnc(NC(=O)C2CC2)cc1Nc1nccc(-c2cnn(C)n2)c1OC` [Example 62, Methyl 6-(cyclopropanecarboxamido)-4-((3-methoxy-4-(2-methyl-2H-1,2,3-triazol-4-yl)pyridin-2-yl)amino)nicotinate], the IC50 in test [1] was more than 1000 nM; on TYK2-JH2 domain it was 0.98 nM; on JAK1-JH2 domain, 154 nM. The JAK1/TYK2 selectivity on TYK2-JH2 domain is reported as 156.97.

As for `[2H]C([2H])([2H])CC(=O)c1cnc(NC(=O)C2CC2)cc1Nc1nc2ccc(N3CC(OC)C3)cn2n1` [Example 64, N-[4-[[6-(3-methoxyazetidin-1-yl)-[1,2,4]triazolo[1,5-a]pyridin-2-yl]amino]-5-(3,3,3-trideuteriopropanoyl)-2-pyridyl]cyclopropanecarboxamide], the IC50 in test [1] came out at 13 nM; on TYK2-JH2 domain, 0.141 nM; at JAK1-JH2 domain it was 34.7 nM. The JAK1/TYK2 selectivity at TYK2-JH2 domain came out at 246.

For `COc1c([C@H](OC)C(F)(F)F)ccc2c1c(Nc1cc(NC(=O)C3CC3)ncc1C(=O)O)nn2C` [Example 77, (S)-6-(Cyclopropanecarboxamido)-4-((4-methoxy-1-methyl-5-(2,2,2-trifluoro-1-methoxyethyl)-1H-indazol-3-yl)amino)nicotinic acid], the IC50 in test [1] is more than 1000 nM; on TYK2-JH2 domain, 0.08 nM; at JAK1-JH2 domain it was 185 nM. In addition, on TYK2-JH2 domain, the JAK1/TYK2 selectivity was determined as 2307.96.

As for `[2H]C([2H])([2H])OC(=O)c1cnc(NC(=O)C2CC2)cc1Nc1cnn2ccc([C@H](OC)C(F)(F)F)c(OC)c12` [Example 79, Methyl-d3 (S)-6-(cyclopropanecarboxamido)-4-((4-methoxy-5-(2,2,2-trifluoro-1-methoxyethyl)pyrazolo[1,5-a]pyridin-3-yl)amino)nicotinate], the IC50 in test [1] came out at 109 nM; at TYK2-JH2 domain, 0.28 nM; on JAK1-JH2 domain, 42.7 nM. The JAK1/TYK2 selectivity on TYK2-JH2 domain was 150.32.

Regarding `[2H]C([2H])([2H])OC(=O)c1cnc(NC(=O)C2CC2)cc1Nc1cnn2ccc([C@H](OC([2H])([2H])[2H])C(F)(F)F)c(OC)c12` [Example 80, Methyl-d3 (S)-6-(cyclopropanecarboxamido)-4-((4-methoxy-5-(2,2,2-trifluoro-1-(methoxy-d3)ethyl)pyrazolo[1,5-a]pyridin-3-yl)amino)nicotinate], the IC50 amounted to 88.9 nM in test [1], 0.26 nM on TYK2-JH2 domain and 46 nM on JAK1-JH2 domain. The JAK1/TYK2 selectivity at TYK2-JH2 domain is reported as 176.08.

In the case of `[2H]C([2H])([2H])OC(=O)c1cnc(NC(=O)C2CC2)cc1Nc1ncn2ncc(C(OC)C(F)(F)F)c2c1OC` (stereo not drawn) [Example 81, Methyl-d3 6-(cyclopropanecarboxamido)-4-((4-methoxy-3-(2,2,2-trifluoro-1-methoxyethyl)pyrazolo[1,5-c]pyrimidin-5-yl)amino)nicotinate], the IC50 in test [1] is 306 nM; at TYK2-JH2 domain, 4.02 nM; on JAK1-JH2 domain, more than 298 nM. For the same compound, the JAK1/TYK2 selectivity at TYK2-JH2 domain is more than 74.25.

In the case of `CCOC(=O)c1cnc(NC(=O)C2CC2)cc1Nc1cnn2ccc([C@H](O)C(F)(F)F)c(OC)c12` [Example 83, (S)-ethyl 6-(cyclopropanecarboxamido)-4-((4-methoxy-5-(2,2,2-trifluoro-1-hydroxyethyl)pyrazolo[1,5-a]pyridin-3-yl)amino)nicotinate], the IC50 was 173 nM in test [1], 0.76 nM at TYK2-JH2 domain and more than 298 nM at JAK1-JH2 domain. Besides, the JAK1/TYK2 selectivity on TYK2-JH2 domain is given as more than 393.28.
